Data on 1 substance can be found in patent publication US7550425B2, “Diuretic peptide conjugates” (Zealand Pharma A/S, priority 2000, dated 2009).

Data set [1] has as its system opioid (non-selective opiate, δ, κ, μ), vasopressin (V1a, V1b, V2) and 40 other receptor, uptake and ion channel binding sites. Briefly: Receptor, uptake and ion channel binding panel. The conditions noted are these: 0.1, 10 and 1000 nM (opioid, vasopressin); 10 μM (other sites). As for the experimental part: In addition, Compound 1 has been tested in 5 opioid (non-selective opiate, δ, κ, μ, &ORL1), 3 vasopressin (V1a, V1b and V2) receptor binding assays at 0.1, 10, and 1000 nM as well as in 40 different receptor, uptake, and ion channel binding sites (A1, A2, α1, α2, β1, NE uptake, AT1, BZD, B2 (h), CCKA (˜CCK1), D1, D2, ETA(h), GABA, NMDA, H1, M, NK1(h), Y, N, opiate, PCP, 5-HT, 5-HT1B, 5-HT2A, 5-HT uptake, σ, V1) at 10 μM.

The nature of data set [2]: In vitro stability in heparinised human plasma. It is filed as in vitro ADME. As for the experimental part: In addition, the degradation of Compound 1 of the invention has been studied in heparinised human plama.
The stability of peptides is analysed in human plasma. The peptides are incubated at 37° C. in plasma and samples taken at approx. 8 regular intervals between t=0 and t=390 min for Compound 1 and nociceptin-NH2, and at 9 intervals between t=0 and t=32 min for Compound CE1 are analysed by HPLC. […] This is done by subsequent injections of the drug, plasma, and a co-injection with the drug and the plasma, followed by optimisation of the LC method parameters until a satisfactory separation is obtained. Three parallel experiments are performed for each plasma type. 100 μl of peptide is mixed with 900 μl plasma at t=0 and incubated at 37° C. (drug-plasma mixture conc. 0.1 mg/ml). Samples of 100 μl of the drug-plasma mixture are removed at appropriate intervals and the degradation stopped by precipitation of the sample with 10 μl MeCN:TFA 50:50 v/v. A control plasma sample without the drug treated in the same manner is also taken. The plasma samples are centrifuged for 15 min. at 12,000 rpm (Eppendorf centrifuge) at ambient temperature. The resulting supernatant solution is transferred to 300 μl HP autosamler vials and analyzed by HPLC. HPLC analysis are performed as follows:
Ac-RYYRWK-NH2 (SEQ ID NO: 1) and Compound 1
The samples are analysed in the following order: blank, the peptide at 0.1 mg/mL, the plasma without the peptide, the three parallel samples for t=0, the three parallel samples for t=5 min. the three parallel samples for t=60 min. etc. And finally the three parallel samples for t=0 are repeated to make sure that there have been no degradation or other failure during the analyses. The sample concentrations (peak height in mAU) are plotted vs. time and fitted to a function describing a mono exponential decay (Excel). The half-lives of the peptides in plasma are presented in Table 7 as mean (n=3)±standard deviation.

Data set [3] deals with hORL1 receptor (Homo sapiens, UniProt P41146). Briefly: Inhibition of forskoline-induced cAMP formation in HEK293 cells expressing human ORL1. Details: expressed in transfected cells; host or cells: HEK293. The conditions noted are these: transfected HEK293 cells. It is filed as cell-based.
Chain of hORL1 receptor (P41146 whole entry, the tested form may be a part): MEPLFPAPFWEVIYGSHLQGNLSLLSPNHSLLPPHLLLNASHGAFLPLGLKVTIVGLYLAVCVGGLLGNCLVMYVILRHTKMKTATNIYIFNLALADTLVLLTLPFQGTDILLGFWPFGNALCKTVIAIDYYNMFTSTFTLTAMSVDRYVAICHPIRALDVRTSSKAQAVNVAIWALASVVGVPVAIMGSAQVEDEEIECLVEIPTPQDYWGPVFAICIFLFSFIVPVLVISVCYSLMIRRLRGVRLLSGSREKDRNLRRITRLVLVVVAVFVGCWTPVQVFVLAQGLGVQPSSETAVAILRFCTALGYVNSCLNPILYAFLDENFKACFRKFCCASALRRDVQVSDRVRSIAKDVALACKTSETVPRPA
Data set [4] concerns chronically instrumented rats. Briefly: Twelve-hour i.v. infusion with servo-controlled volume replacement (acute tachyphylaxis). In kind it is in vivo, rat. As for the experimental part: To evaluate whether acute tachyphylaxis develops during i.v. treatment with Compound 1, an additional series of experiments were performed. Chronically instrumented rats were infused with vehicle (150 mM glucose) or Compound 1 (1 nmol/kg/min) for twelve hours while water balance was maintained using a computer-driven, servo-controlled i.v. volume replacement system^[2]. Acute tachyphylaxis has been observed during repeated i.v. dosing of the vasopressin antagonist SKF 101926 in conscious dogs^[12] and tolerance during chronic treatment has been reported for the selective V2-receptor antagonist OPC-31260 ^[13].

Data set [5] deals with nociceptin-induced smooth muscle relaxation in mouse vas deferens. Briefly: Mouse vas deferens assay: antagonism of nociceptin-induced relaxation (Schild pA2). As for the experimental part:
The vas deferens from male NMRI albino mice weighing 30-40 g were placed in a SCHULER organ bath Type 809, Hugo Sachs Elektronik, Germany, and perfused with a 37° C., modified Krebs solution (NaCl 6,9 g/L, KCl 0.35 g/L, KH2PO4 0.16 g/L, NaHCO3 2.1 g/L, Glucose H2O 2.0 g/L, CaCl2 2.52 mL/L). The solution was gassed with carbogen (95% O2 and 5% CO2) throughout the experiment. The tissue was electrically stimulated through two silver electrodes directly in the organ bath using a HSE Stimulator I Type 215. Stimulation of the tissue was performed by applying a supramaximal voltage (15 Volts) in trains of 10 square pulses every 60 s, each of 1 ms duration with a frequency of […]. Concentration-response curves were performed by adding test substances that relax mouse vas deferens smooth muscles cumulatively to the organ baths. The test substances used in the assay were nociceptin in an isotonic saline solution, Compound 1 (as the trifluoroacetate in an isotonic saline solution), Compound 2 (as the trifluoroacetate in an isotonic saline solution), and the hexapeptide Ac-RYYRWK-NH2 (SEQ ID NO: 1) (as the trifluoroacetate in an isotonic saline solution).
The effects of Ac-RYYRWK-NH2 (SEQ ID NO: 1) and Compound 1 on nociceptin-induced relaxation in the mouse vas deferens assay were also tested. […] Using the Schild equation ^[7], the pA2 values which indicates affinity of a compound as an antagonist were calculated.

Where two headings read alike, the source gives them in different places.

For “Ac-RYYRWKKKKKKK-NH2 [Compound 1, Ac-RYYRWKKKKKKK-NH2]”, the “binding to other receptors than the ORL1 receptor” value in data set [1] was “none or only weak binding to other receptors than the ORL1 receptor”. The half-life at 0.1 mg/ml in data set [2] (37° C., mean (n=3) +/− deviation, read-out: T1/2 in min (degradation in human heparinised plasma)) was 16.2 h; in data set [2] (read-out: half life in plasma), greater than 16 h. Moreover, in data set [3], the “relative maximum relative to nociceptin” value was 92%. Further, the “tubular water reabsorption and haemodynamics” value in data set [4] (i.v. infusion 1 nmol/kg/min) is “inhibited tubular water reabsorption without concomitant changes in arterial blood pressure, heart rate, renal blood flow, glomerular filtration rate or proximal tubular reabsorption”. Besides, in data set [4] (i.v. infusion 1 nmol/kg/min for twelve hours), the “duration of aquaretic response” value was “sustained aquaretic response lasting the entire 12-hour infusion period”. The acute tachyphylaxis entry in data set [4] (i.v. infusion 1 nmol/kg/min, 12 hours) is reported as “no acute tachyphylaxis develops within the first 12 hours of treatment”. Further, the “magnitude of aquaretic response versus OPC-31260” value in data set [4] (i.v. infusion 1 nmol/kg/min, FIG. 9) is listed as “aquaretic response of similar magnitude to the response seen with maximal doses of the selective vasopressin type-2 receptor antagonist OPC-31260”. In addition, the pA2 value in data set [5] (Schild equation, antagonism of nociceptin-induced relaxation, n = 4) is on record as 9.5 (n = 4). Besides, the “fold more potent as an antagonist than Ac-RYYRWK-NH2” value in data set [5] (nociceptin-induced smooth muscle relaxation, MVD assay) is “about 50 fold”.
